Measurements from PMC2362153 (British Journal of Cancer, 1999).
Where two headings read alike, the source gives them in different places.

Assays:
[1] = cited from earlier work
mdr1a transfected cells = system: mdr1a transfected cells; set-up: method as in Tang-Wai et al, 1995; settings: ref Tang-Wai et al, 1995; cited from earlier work
[2] = Urinary and faecal excretion of doxorubicin and metabolites within 96 h (metabolic cages); settings: for Excretion in faeces / Excretion in urine: within 96 h after i.v. 5 mg kg-1 doxorubicin
Experimental: Drug and metabolite concentrations were determined in plasma, tissues, urine and faeces by high-performance liquid chromatography. […] The animals were housed and handled according to institutional guidelines. Food (Hope Farms, Woerden, The Netherlands) and acidified water were given ad libitum. […] Bovine serum albumin (BSA) was obtained from Organon Teknika (Boxtel, The Netherlands). All other reagents were of analytical or Lichrosolv gradient grade and were purchased from E Merck (Darmstadt, Germany). Water was purified by the Milli-Q Plus system (Millipore, Milford, USA). Blank human plasma was obtained from healthy donors. […] The excretion study was performed with two groups of six animals, whereas in the other pharmacokinetic experiments three or four animals were used per time point. Tissue and blood samples were taken at 1, 4 and 24 h after drug adminis- tration. Blood was obtained by orbital bleeding under diethyl ether anaesthesia and collected in heparinized tubes. The animals were sacrificed by cervical dislocation to collect the following tissues: brain, skeletal muscle, colon, caecum, small gut, stomach, liver (without gall bladder), kidney, lung, spleen, heart, ovary, uterus and breast. The tissues were homogenized with a Polytron tissue homogenizer (Kinematica, Littau, Switzerland) in 4% (w/v) BSA in water, resulting in final concentrations of approximately 0.05-0.2 g tissue ml-1. Additional blood samples were obtained at 5, 15, 30 and 45 min and at 2, 8, 16, 30, 40, 56 and 64 h after drug administration. Blood samples were centrifuged (10 min, 2000 g, 4C) to separate the plasma fraction, which was stored for analysis. Urine and faeces from mice kept in Ruco Type M/1 stain- less-steel metabolic cages (Valkenswaard, The Netherlands) were collected during time intervals of 0-8, 8-24, 24-48, 48-72 and 72-96 h after drug administration. Homogenization of faeces in 4% (w/v) BSA in water (0.03-0.1 g faeces ml-1) was according to the procedure described above for tissue specimens. All biological specimens were stored at -20C until analysis. […] In brief, dilutions of faeces homogenate (20-fold) and urine (100-fold) were prepared in blank human plasma, all other specimens were used without further dilution.

[3] = mouse, in vivo
From the text: (§1) Blank human plasma was obtained from healthy donors. […] All biological specimens were stored at -20C until analysis. […] However, […]

[4] = Plasma pharmacokinetics of doxorubicin and metabolites after i.v. bolus in wild-type and mdr1a(-/-) mice (HPLC); settings: for half-life / concentration at 1 h / concentration at 4 h / concentration at 24 h / AUC(0-t) / clearance / Vd: female, FVB, mouse, iv; for half-life: in vivo, t1/2(), elimination half-life; for half-life / AUC(0-t) / clearance / Vd: 5 mg/kg; for concentration at 1 h / concentration at 4 h / concentration at 24 h / AUC(0-t) / clearance / Vd: plasma; for concentration at 1 h / concentration at 4 h / concentration at 24 h: 5 mg kg-1, Plasma level; for concentration at 1 h: 1 h after i.v. 5 mg kg-1 doxorubicin; for concentration at 4 h: 4 h after i.v. 5 mg kg-1 doxorubicin; for concentration at 24 h: 24 h after i.v. 5 mg kg-1 doxorubicin; for AUC(0-t): AUC(0-64), area under the plasma concentration-time curve up to 64 h; for clearance: Cl; for Vd: volume of distribution
From the text: as §1

[5] = Tissue distribution of doxorubicin and metabolites in wild-type and mdr1a(-/-) mice (HPLC); settings: 24 h after drug administration
From the text: as §1

[6] = over 48 h, ref Van Asperen et al, 1996, cited from earlier work
[7] = mdr1a(-/-) mice, i.v. bolus 5 mg kg-1
[8] = wild-type mice, i.v. bolus 5 mg kg-1

COc1cccc2c1C(=O)c1c(O)c3c(c(O)c1C2=O)C[C@@](O)(C(=O)CO)C[C@@H]3O[C@H]1C[C@H](N)[C@H](O)[C@H](C)O1 [doxorubicin]
doxorubicin concentration in heart on co-administration of reversal agent ([1]; ref Bellamy et al, 1995): up to twofold higher
resistance of mdr1a transfected cells in comparison with non-P-glycoprotein-expressing parental cells (mdr1a transfected cells): 35 fold
dose excreted unchanged in faeces ([2]; within 96 h after administration, wild-type mice): 5%
Excretion in faeces ([2]; mdr1a(-/-) mice): 4.1 percentage of the administered dose
Excretion in urine ([2]; mdr1a(-/-) mice): 15.4 percentage of the administered dose
Excretion in faeces ([2]; wild-type mice): 5.2 percentage of the administered dose
Excretion in urine ([2]; wild-type mice): 10.9 percentage of the administered dose
tolerability of dose level [3]: well tolerated
half-life [4, 7]: 24.8 h
half-life [4, 8]: 15.7 h
concentration at 1 h ([4]; mdr1a(-/-) mice): 110 nM
concentration at 1 h ([4]; wild-type mice): 130 nM
concentration at 4 h ([4]; mdr1a(-/-) mice): 66.2 nM
concentration at 4 h ([4]; wild-type mice): 70.9 nM
concentration at 24 h ([4]; mdr1a(-/-) mice): 28.2 nM
concentration at 24 h ([4]; wild-type mice): 16.3 nM
AUC(0-t) [4, 7]: 2.27 µM·h
AUC(0-t) [4, 8]: 1.82 µM·h
clearance [4, 7]: 60 mL/min/kg
clearance [4, 8]: 75 mL/min/kg
Vd [4, 7]: 128 L/kg
Vd [4, 8]: 101 L/kg
AUC, mdr1a(-/-) in comparison with wild-type mice ([4]; i.v. bolus 5 mg kg-1): 1.2 fold
Vd, mdr1a(-/-) in comparison with wild-type mice ([4]; i.v. bolus 5 mg kg-1): 1.3 fold
terminal half-life, mdr1a(-/-) in comparison with wild-type mice ([4]; i.v. bolus 5 mg kg-1): 1.6 fold
absolute concentration in hearts of mdr1a(-/-) mice compared with wild-type [5]: more than twofold higher

CC[C@]1(O)C[C@@H]2CN(CCc3c([nH]c4ccccc34)[C@@](C(=O)OC)(c3cc4c(cc3OC)N(C)[C@H]3[C@@](O)(C(=O)OC)[C@H](OC(C)=O)[C@]5(CC)C=CCN6CC[C@]43[C@@H]65)C2)C1 [vinblastine]
resistance of mdr1a transfected cells in comparison with non-P-glycoprotein-expressing parental cells (mdr1a transfected cells): 53 fold
i.v. administered dose excreted unchanged in the faeces ([6]; mdr1a(-/-) mice): 10%
i.v. administered dose excreted unchanged in the faeces ([6]; wild-type mice): 24%

cyclosporin A
mortality on co-administration with doxorubicin ([1]; non-tumour-bearing mice, ref Colombo et al, 1994, Bellamy et al, 1995, Gonzalez et al): high mortality
